Laboratory results as given in patent EP1268431B1 (Wyeth, priority 2000, dated 2001).
“And” between values parts separate entries of the source, which are not always exact repeats. Equal entries are not always repeated. Where two headings read alike, the source gives them in different places.

Experiments:
[1] = tested on: Human adenocarcinoma cell line LoVo; assay: Cell Based Screen for Inhibitors of Raf Kinase, LoVo cells; details: four days, SRB
Protocol: • Cell Lines: Human adenocarcinoma cell line LoVo which is known to be growth inhibited by low nM concentrations of a reference standard inhibitor of Ras and human adenocarcinoma cell line CaCo-2, which is known to be growth resistant to the same reference compound. • Cell Media: RPMI 1640 with 10% Fetal Bovine Serum supplemented with L-glutamine and Pennicilin/Streptomycin. • Compounds: Supplied usually as a 10 mM stock in 100% DMSO. • Normal Saline: 150 mM NaCl • Trichloroacetic Acid (TCA): 50% (w/v) in water • Sulforhodamine B (SRB): 0.4% (w/v) in 1% Acetic Acid • Tris Base: 10 mM in water
Cells are plated at 2000 cells per well for cell line LoVo and 1500 cells for cell line CaCo-2 in 96 well plates. Cells are plated in media (200 µl) and allowed to adhere overnight at 37° C. At 24 hours post plating, compounds are added directly at a volume of 0.5 µl. For the qualitative screen (compounds screened at 25 µM) compound is added directly to cells. For the quantitative screen, compound is first diluted in DMSO to generate concentrations of compound or reference standard of: 1, 5, 10 and 25 µM. It is advisable to make the dilutions in an identical 96 well plate so that compounds may be added using a multichannel micropipettor set at 0.5 µl. The cells are then incubated for four days after which the media is removed using a 12 well manifold by first tipping the plate forward at a 45 degree angle and then inserting the manifold in an upright orientation to prevent the tips of the manifold from disturbing cells at the bottom of the plate. 200 µl of normal saline is then added to each well using an 8 well multichannel pipettor, followed by the careful addition of 50 µl of 50% TCA. The plates are then incubated for 2 hours at 4 ° C, after which the supernatant is removed using the same technique as above and the plated washed twice with 200 µl water. The plates are then air dried and 50 µl of SRB stock solution is carefully added so that the entire bottom of each well is covered. This again may be used using an 8 well multichannel pipettor. The SRB is incubated with fixed cells for 15 minutes at room temperature after which the SRB is removed with the manifold as described above and the plates washed twice with 350 µl of 1% acetic acid per well each time.The plates are then air dried after which the bound SRB is released from protein by the addition of 200 µl of Tris base. Resolubilizing the SRB is aided by placing the plates on a rotator for 15-30 minutes. The absorbance of each well is determined at 550 or 562 nm using a microtiter plate reader.
Each compound or dilution thereof is performed in triplicate. Outliers are identified by visual inspection of the data. Each plate should have a "0" control (vehicle only).
Quantitative Assay: A standard curve is constructed by plotting the concentration of compound against the average absorbance calculated at that concentration. A curve is plotted and the concentration at which the curve passes through the 50% the absorbance mark seen in the "0" control well is the IC50 calculated for that compound. […]

[2] = tested on: Rat2 fibroblasts stably transformed with a plasmid containing a CMV promotor controlled v-Src/Hu c-Src fusion gene; assay: Anchorage Independent Src-transformed Fibroblast Proliferation Assay
c-Src = target: T1, c-Src (Homo sapiens, UniProt P12931); assay: c-Src Kinase Assay (ELISA format); format: biochemical
T1 construct: purchased Upstate Biotechnologies
In short: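 Partially purified Src preincubated with compound and biotinylated peptide 10 min at 30 °C in Tris-HCl pH 7.5 with MgCl2, EGTA, vanadate; ATP-started reaction ran 1 h at 30 °C, EDTA-stopped. Phosphopeptide captured on streptavidin, detected by HRP anti-phosphotyrosine; % inhibition = (1 − Abs/Abs(max)) × 100.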

[3] = read-out: anch-indep src-tx fib IC50, suspension growth, MTS on Day 5
[4] = Rattus norvegicus, Rat2, 120 h, read-out: anch-indep src-tx fib IC50, suspension growth, MTS on Day 5

| Compound | IC50 ([1]; Homo sapiens, 96 h) [µM] | IC50 [1] | IC50 [2, 3] [µM] | IC50 (c-Src) | IC50 [2, 4] [µM] |
| --- | --- | --- | --- | --- | --- |
| CCN1CCN(Cc2ccc(-c3ccc4c(Nc5ccc(Sc6nccn6C)c(Cl)c5)c(C#N)cnc4c3)nc2)CC1 [Example 171, 4-{3-chloro-4-[(1-methyl-1H-imidazol-2-yl)sulfanyl]anilino}-7-{5-[(4-ethyl-1-piperazinyl)methyl]-2-pyridinyl}-3-quinolinecarbonitrile] | 0.008 | 0.005 µM and < 0.005 µM | – | – | – |
| COc1cc(Nc2c(C#N)cnc3cc(-c4csc(CN5CCOCC5)c4)ccc23)c(Cl)cc1Cl [Example 24, 4-(2,4-Dichloro-5-methoxyanilino)-7-[5-(4-morpholinylmethyl)-3-thienyl]-3-quinolinecarbonitrile] | – | – | 0.18 | 0.0021 µM and 0.0037 µM | – |
| COc1cc(Nc2c(C#N)cnc3cc(-c4ccc(CN5CCOCC5)n4C)ccc23)c(Cl)cc1Cl [Example 70, 4-(2,4-Dichloro-5-methoxyanilino)-7-[1-methyl-5-(4-morpholinylmethyl)-1H-pyrrol-2-yl]-3-quinolinecarbonitrile] | – | – | – | 0.025 µM | 6 |
| COc1cc(Nc2c(C#N)cnc3cc(-c4ccc(CN5CCOCC5)c(CN5CCOCC5)c4)ccc23)c(Cl)cc1C [Example 133, 7-[3,4-bis(4-morpholinylmethyl)phenyl]-4-(2-chloro-5-methoxy-4-methylanilino)-3-quinolinecarbonitrile] | – | – | – | 0.007 µM | 0.73 |
| COC(=O)C1CCN(Cc2ccc(-c3ccc4c(Nc5cc(OC)c(Cl)cc5Cl)c(C#N)cnc4c3)nc2)CC1 [Example 176, 1-{6-[3-cyano-4-(2,4-dichloro-5-methoxyphenylamino)-quinolin-7-yl]-pyridin-3-ylmethyl}piperidine-4-carboxylic acid methyl ester] | – | – | – | 0.0017 µM | 0.09 |
| COc1cc(Nc2c(C#N)cnc3cc(-c4ccc(C5OCCO5)s4)ccc23)c(Cl)cc1Cl [Example 51, 4-(2,4-Dichloro-5-methoxyanilino)-7-[5-(1,3-dioxolan-2-yl)-2-thienyl]-3-quinolinecarbonitrile] | – | – | – | 0.0082 µM | 0.42 |
| CCN1CCN(Cc2cc(-c3ccc4c(Nc5cc(OC)c(Cl)cc5Cl)c(C#N)cnc4c3)cs2)CC1 [Example 19, 4-(2,4-Dichloro-5-methoxyanilino)-7-{5-[(4-ethyl-1-piperazinyl)methyl]-3-thienyl}-3-quinolinecarbonitrile] | – | – | – | 0.002 µM and 0.0017 µM | 0.16 |
| COc1cc(Nc2c(C#N)cnc3cc(-c4sccc4C=O)ccc23)c(Cl)cc1Cl [Example 163, 4-(2,4-dichloro-5-methoxyanilino)-7-(3-formyl-2-thienyl)-3-quinolinecarbonitrile] | – | – | – | > 1 µM | > 10 |
| COC(=O)C1CCN(Cc2ccc(-c3ccc4c(Nc5cc(OC)c(Cl)cc5Cl)c(C#N)cnc4c3)cc2)CC1 [Example 231, methyl 1-{4-[3-cyano-4-(2,4-dichloro-5-methoxy-anilino)-7-quinolinyl]benzyl}-4-piperidinecarboxylate] | – | – | – | 0.0068 µM | 0.39 |
| COc1cc(Nc2c(C#N)cnc3cc(-c4ccc(CO)cc4)ccc23)c(Cl)cc1Cl [Example 101, 4-(2,4-Dichloro-5-methoxyanilino)-7-[4-(hydroxymethyl)phenyl]-3-quinolinecarbonitrile] | – | – | – | 0.015 µM | > 10 |
| COc1cc(Nc2c(C#N)cnc3cc(-c4ccc(C=O)n4C)ccc23)c(Cl)cc1Cl [Example 69, 4-(2,4-Dichloro-5-methoxyanilino)-7-(5-formyl-1-methyl-1H-pyrrol-2-yl)-3-quinolinecarbonitrile] | – | – | – | 0.11 µM | > 10 |
| COc1cc(Nc2c(C#N)cnc3cc(-c4ccc(CNCCS(C)(=O)=O)n4C)ccc23)c(Cl)cc1Cl [Example 73, 4-(2,4-Dichloro-5-methoxyanilino)-7-[1-methyl-5-({[2-(methylsulfonyl)ethyl]amino}methyl)-1H-pyrrol-2-yl]-3-quinolinecarbonitrile] | – | – | – | 0.058 µM and 0.075 µM | > 10 |
| N#Cc1cnc2cc(-c3cc(CN4CCOCC4)c(CN4CCOCC4)s3)ccc2c1Nc1ccc(Cl)cc1Cl [Example 17, 7-[4,5-Bis(4-morpholinylmethyl)-2-thienyl]-4-(2,4-dichloroanilino)-3-quinolinecarbonitrile] | – | – | – | 0.0007 µM and 0.0021 µM and 0.0031 µM | 0.31 |
| COc1cc(Nc2c(C#N)cnc3cc(-c4ccc(C=O)o4)ccc23)c(Cl)cc1Cl [Example 6, 4-(2,4-Dichloro-5-methoxyanilino)-7-(5-formyl-2-furyl)-3-quinolinecarbonitrile] | – | – | – | 0.004 µM | 1.6 |
| CCOC(=O)CC1CCN(Cc2ccc(-c3ccc4c(Nc5cc(OC)c(Cl)cc5Cl)c(C#N)cnc4c3)cc2)CC1 [Example 144, ethyl (1-{4-[3-cyano-4-(2,4-dichloro-5-methoxyanilino)-7-quinolinyl]benzyl}-4-piperidinyl)acetate] | – | – | – | 0.004 µM | 0.092 |
| COc1cc(Nc2c(C#N)cnc3cc(-c4ccc(CN5CCS(=O)(=O)CC5)cc4)ccc23)c(Cl)cc1Cl [Example 150, 4-[(2,4-dichloro-5-methoxyphenyl)amino]-7-{4-[(1,1-dioxido-4-thiomorpholinyl)methyl]phenyl}-3-quinolinecarbonitrile] | – | – | 0.52 | 0.013 µM and 0.0066 µM | 0.5 |
| CCOC(=O)C1CCCN(Cc2ccc(-c3ccc4c(Nc5cc(OC)c(Cl)cc5Cl)c(C#N)cnc4c3)cc2)C1 (stereo not shown) [Example 148, ethyl 1-(4-{3-cyano-4-[(2,4-dichloro-5-methoxyphenyl)amino]-7-quinolinyl}benzyl)-3-piperidinecarboxylate] | – | – | – | 0.0086 µM | 2.1 |
| COc1cc(Nc2c(C#N)cnc3cc(-c4ccc(CNCCc5ccccn5)o4)ccc23)c(Cl)cc1Cl [Example 74] | – | – | 1.4 | 0.04 µM | – |
| COc1cc(Nc2c(C#N)cnc3cc(-c4cncn4CCN4CCOCC4)ccc23)c(Cl)cc1Cl [Example 64, 4-(2,4-Dichloro-5-methoxyanilino)-7-{1-[2-(4-morpholinyl)ethyl]-1H-imidazol-5-yl}-3-quinolinecarbonitrile] | – | – | – | 0.95 µM | > 10 |
| COc1cc(Nc2c(C#N)cnc3cc(-c4csc(CN5CCOCC5)c4)ccc23)c(C)cc1Cl [Example 167, 4-(4-chloro-5-methoxy-2-methylanilino)-7-[5-(4-morpholinylmethyl)-3-thienyl]-3-quinolinecarbonitrile] | – | – | – | 0.012 µM and 0.016 µM | 0.9 |
| COc1cc(Nc2c(C#N)cnc3cc(-c4csc(CN5CCOCC5)c4)ccc23)c(Cl)cc1F [Example 79, 4-(2-chloro-4-fluoro-5-methoxyanilino)-7-[5-(4-morpholinylmethyl)-3-thienyl]-3-quinolinecarbonitrile] | – | – | – | 0.0017 µM | 0.13 |
| COc1cc(Nc2c(C#N)cnc3cc(-c4ccc(C5OCCO5)o4)ccc23)c(Cl)cc1Cl [Example 5, 4-(2,4-Dichloro-5-methoxyanilino)-7-[5-(1,3-dioxolan-2-yl)-2-furyl]-3-quinolinecarbonitrile] | – | – | – | 0.0043 µM | 0.2 |
| 4-(2,4-Dichloro-5-methoxyanilino)-7-{5-[(4-hydroxy-1-piperidinyl)methyl]-2-thienyl}-3-quinolinecarbonitrile [Example 89] | – | – | 0.09 | 0.00052 µM and 0.00084 µM | – |
| COc1cc(Nc2c(C#N)cnc3cc(-c4ccsc4CN4CCOCC4)ccc23)c(Cl)cc1Cl [Example 66, 4-(2.4-Dichloro-5-methoxyanilino)-7-[2-(4-morpholinylmethyl)-3-thienyl]-3-quinolinecarbonitrile] | – | – | – | 0.38 µM | > 10 |
